Laboratory results from patent publication US10399995B2, “1,4-Oxazines useful as selective BACE1 inhibitors” (Eli Lilly and Company, priority 2016, dated 2019).
Like-named read-outs stand apart in the source and are kept apart here.

Experiments:
BACE1 = target: T1, BACE1 (Homo sapiens, UniProt P56817); test: SH-SY5YAPP695Wt Whole Cell Assay; assay type: cell-based; details: SH-SY5Y cells expressing human APP695Wt, 24 hours, conditioned media, mean ± standard deviation of the mean, n=3
T1 construct: endogenous in cells; host or cells: SH-SY5Y (ATCC CRL2266) stably expressing human APP695Wt
Protocol: (§1) To assess selectivity of BACE1 over BACE2, the test compound is evaluated in FRET assays using specific substrates for BACE1 and BACE2 as described below. For in vitro enzymatic and cellular assays, the test compound is prepared in DMSO to make up a 10 mM stock solution. The stock solution is serially diluted in DMSO to obtain a ten-point dilution curve with final compound concentrations ranging from 10 μM to 0.05 nM in a 96-well round-bottom plate before conducting the in vitro enzymatic and whole cell assays.
The routine whole cell assay for the measurement of inhibition of BACE1 activity utilizes the human neuroblastoma cell line SH-SY5Y (ATCC Accession No. CRL2266) stably expressing a human APP695Wt cDNA. Cells are routinely used up to passage number 6 and then discarded.
SH-SY5YAPP695Wt cells are plated in 96 well tissue culture plates at 5.0×10^4 cells/well in 200 μL culture media (50% MEM/EBSS and Ham's F12, 1× each sodium pyruvate, non-essential amino acids and NaHCO3 containing 10% FBS). The following day, media is removed from the cells, fresh media added then incubated at 37° C. for 24 hours in the presenceabsence of test compound at the desired concentration range.
At the end of the incubation, conditioned media are analyzed for evidence of beta-secretase activity by analysis of Abeta peptides 1-40 and 1-42 by specific sandwich ELISAs. […]

human BACE2 (1-460):Fc = target: T2, human BACE2 (1-460):Fc (Homo sapiens, UniProt Q9Y5Z0); test: BACE2 TMEM27 FRET Assay; assay type: biochemical
T2 construct: made in house; host or cells: HEK293 (transient transfection, purified from conditioned media by Protein A)
T2 sequence (Q9Y5Z0 21-460): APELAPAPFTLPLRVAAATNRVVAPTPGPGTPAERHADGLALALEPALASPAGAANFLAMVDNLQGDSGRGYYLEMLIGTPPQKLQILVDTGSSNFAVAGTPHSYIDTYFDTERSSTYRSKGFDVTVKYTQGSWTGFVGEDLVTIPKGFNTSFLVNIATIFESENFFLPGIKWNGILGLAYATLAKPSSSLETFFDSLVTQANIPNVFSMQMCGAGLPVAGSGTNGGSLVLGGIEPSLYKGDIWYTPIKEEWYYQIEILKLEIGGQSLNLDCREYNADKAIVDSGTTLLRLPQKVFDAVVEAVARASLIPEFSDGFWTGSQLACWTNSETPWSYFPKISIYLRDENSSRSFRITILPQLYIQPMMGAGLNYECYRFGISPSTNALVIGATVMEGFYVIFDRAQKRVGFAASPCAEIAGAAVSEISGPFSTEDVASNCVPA
Protocol: as §1
(§2) Human BACE1 (accession number: AF190725) and human BACE2 (accession number: AF 204944) are cloned from total brain cDNA by RT-PCR. The nucleotide sequences corresponding to amino acid sequences #1 to 460 are inserted into the cDNA encoding human IgG1 (Fc) polypeptide (Vassar et al., Science, 286, 735-742 (1999)). […]
(§3) Conditioned media of HEK293 cells transiently transfected with huBACE1:Fc or huBACE2:Fc cDNA are collected. […] The purity of the final product is assessed by electrophoresis in 4-20% Tris-Glycine SDS-PAGE. […]
Serial dilutions of test compound are prepared as described above. […] The RFU of the mixture at time 0 is recorded at excitation wavelength 430 nm and emission wavelength 535 nm. […] The RFU at the end of incubation is recorded with the same excitation and emission settings used at time 0. […]

Human BACE1(1-460):Fc = target: T3, Human BACE1(1-460):Fc (Homo sapiens, UniProt P56817); test: BACE1 FRET Assay; assay type: biochemical; details: purified recombinant huBACE1:Fc, pH 4.6, mean ± standard deviation of the mean, n=13
T3 construct: made in house; host or cells: HEK293 (transient transfection, purified from conditioned media by Protein A)
Protocol: as §1, §2, §3
Serial dilutions of the test compound are prepared as described above. […] The RFU of the mixture at time 0 is recorded at excitation wavelength 355 nm and emission wavelength 460 nm, after brief mixing on a plate shaker. […] The RFU at the end of incubation is recorded with the same excitation and emission settings used at time 0. […]

T1 sequence (P56817 46-501): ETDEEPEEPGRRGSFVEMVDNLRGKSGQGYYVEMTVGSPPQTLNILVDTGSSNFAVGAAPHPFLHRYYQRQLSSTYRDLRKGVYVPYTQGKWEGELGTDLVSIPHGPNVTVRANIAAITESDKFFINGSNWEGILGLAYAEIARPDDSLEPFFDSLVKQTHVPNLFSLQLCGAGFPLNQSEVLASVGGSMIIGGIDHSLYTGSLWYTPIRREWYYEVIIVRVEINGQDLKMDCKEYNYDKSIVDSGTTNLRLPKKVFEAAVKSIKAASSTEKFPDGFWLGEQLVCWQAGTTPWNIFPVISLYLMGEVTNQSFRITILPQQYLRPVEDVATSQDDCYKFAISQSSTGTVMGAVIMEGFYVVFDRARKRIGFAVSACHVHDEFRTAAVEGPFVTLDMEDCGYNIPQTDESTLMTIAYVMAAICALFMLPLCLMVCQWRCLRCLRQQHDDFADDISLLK
T3 sequence (P56817 22-460): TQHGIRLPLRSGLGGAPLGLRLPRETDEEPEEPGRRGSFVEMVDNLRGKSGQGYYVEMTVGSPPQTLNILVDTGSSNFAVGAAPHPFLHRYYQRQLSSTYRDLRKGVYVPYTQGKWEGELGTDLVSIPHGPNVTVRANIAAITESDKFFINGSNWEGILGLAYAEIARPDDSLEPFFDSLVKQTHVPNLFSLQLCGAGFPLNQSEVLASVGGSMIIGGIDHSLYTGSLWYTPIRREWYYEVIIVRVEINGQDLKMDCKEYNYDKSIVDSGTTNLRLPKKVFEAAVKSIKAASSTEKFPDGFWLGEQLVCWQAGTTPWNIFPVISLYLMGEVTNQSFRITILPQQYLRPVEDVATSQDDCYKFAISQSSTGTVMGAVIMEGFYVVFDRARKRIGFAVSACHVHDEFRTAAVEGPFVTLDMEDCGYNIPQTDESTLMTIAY

IC50 (BACE1; read-out: IC50 for SH-SY5YAPP695Wt A-beta (1-40) ELISA): 1.88 nM | IC50 (BACE1; read-out: IC50 for SH-SY5YAPP695Wt A-beta (1-42) ELISA): 3.55 nM | IC50 (human BACE2 (1-460):Fc; TMEM27 LucY FRET assay, huBACE2:Fc, pH 4.6, mean ± standard deviation of the mean, n=6): 446 nM | ratio of BACE1 (FRET IC50 enzyme assay) to BACE2 (TMEM27 LucY FRET assay) (human BACE2 (1-460):Fc; selectivity for BACE1 over BACE2): approximately 50 fold | IC50 (Human BACE1(1-460):Fc): 8.18 nM
SMILES: C[C@@]1(c2cc(NC(=O)c3nc4ccc(C#N)nc4s3)ccc2F)CO[C@@](C)(C(F)(F)F)C(N)=N1 [Example 1, N-[3-[(3R,6R)-5-Amino-3,6-dimethyl-6-(trifluoromethyl)-2H-1,4-oxazin-3-yl]-4-fluoro-phenyl]-5-cyano-thiazolo[5,4-b]pyridine-2-carboxamide]
